Measurements taken from BindingDB's records for doi:10.1021/jm960248s (Smithkline Beecham Pharmaceuticals, 1996).

Target: fMet-Leu-Phe receptor (Homo sapiens) (UniProt P21462)
Test: Inhibitory concentration against fMLP receptor with [3H]- fMLP in receptor binding assay

Chain of fMet-Leu-Phe receptor (Homo sapiens) (P21462 whole entry, looked up): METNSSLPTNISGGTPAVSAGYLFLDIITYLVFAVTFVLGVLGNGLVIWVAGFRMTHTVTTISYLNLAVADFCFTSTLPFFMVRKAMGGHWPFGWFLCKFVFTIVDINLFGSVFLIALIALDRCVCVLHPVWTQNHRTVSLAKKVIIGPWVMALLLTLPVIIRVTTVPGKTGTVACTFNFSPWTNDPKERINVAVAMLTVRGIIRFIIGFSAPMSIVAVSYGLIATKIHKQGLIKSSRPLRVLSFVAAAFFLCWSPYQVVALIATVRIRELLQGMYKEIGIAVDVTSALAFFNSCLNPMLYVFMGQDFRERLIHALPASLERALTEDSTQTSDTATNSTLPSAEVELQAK

O=C(O)/C=C/c1nc(CSc2c(Cl)cccc2Cl)ccc1OCCc1ccccc1 [Ticolubant]
IC50: 3.25 µM
